Results: BindingDB's records for doi:10.1021/acs.jmedchem.9b00775 (University of North Carolina at Chapel Hill, 2020)

Columns and labels:
[1] = Inhibition of RNA-dependent RNA polymerase in Zika virus MR766 infected in HEK293 cells assessed as antiviral activity by measuring NS1 protein expression preincubated for 1 hr followed by viral infection and measured after 24 hrs by TR-FRET assay
[2] = Inhibition of RNA-dependent RNA polymerase in Zika virus PRVABC59 infected in African green monkey Vero cells infected with supernatants from virus-infected human SNB-19 cells treated with compound for 1 hr assessed as antiviral activity after 48 to 72 hrs
[3] = Inhibition of RNA-dependent RNA polymerase in Zika virus MR766 infected in African green monkey Vero cells assessed as antiviral activity after 72 hrs by DAPI staining based assay
[4] = Inhibition of RNA-dependent RNA polymerase in Zika virus PRVABC59 infected in African green monkey Vero cells assessed as antiviral activity measured 96 hrs post infection by plaque assay
Genome polyprotein [5] = target: T1, Genome polyprotein (Zika virus, UniProt A0A143MHK7); test: Inhibition of RNA-dependent RNA polymerase in Zika virus FSS13025/2010 infected in African green monkey Vero cells assessed as antiviral activity measured 48 hrs post infection by plaque assay
Genome polyprotein [6] = target: T1, Genome polyprotein; test: Inhibition of RNA-dependent RNA polymerase in Zika virus GZ01/2016 infected in African green monkey Vero cells assessed as antiviral activity by measuring viral RNA by RT-qPCR method
Genome polyprotein [7] = target: T1, Genome polyprotein; test: Inhibition of RNA-dependent RNA polymerase in Zika virus FSS13025/2010 infected in African green monkey Vero cells assessed as antiviral activity by measuring viral RNA by RT-qPCR method
Genome polyprotein [8] = target: T1, Genome polyprotein; test: Inhibition of RNA-dependent RNA polymerase in Zika virus GZ01/2016 infected in African green monkey Vero cells assessed as antiviral activity measured 48 hrs post infection by plaque assay
[9] = Inhibition of RNA-dependent RNA polymerase in Zika virus MR766 infected in African green monkey Vero E6 cells assessed as antiviral activity
[10] = Inhibition of RNA-dependent RNA polymerase in Zika virus infected in African green monkey Vero cells assessed as antiviral activity by DAPI-staining based assay
[11] = Inhibition of RNA-dependent RNA polymerase in Zika virus infected in human NPC assessed as antiviral activity by DAPI-staining based assay
[12] = Inhibition of RNA-dependent RNA polymerase in Zika virus PRVABC59/Human/2015/Puerto Rico infected in human NSC assessed as antiviral activity measured 72 hrs post infection by CellTiter-Glo assay
[13] = Inhibition of RNA-dependent RNA polymerase in Zika virus H/PAN/2016/BEI-259634 infected in human NSC assessed as antiviral activity measured 72 hrs post infection by CellTiter-Glo assay
[14] = Inhibition of MTase in Zika virus infected in African green monkey Vero cells assessed as antiviral activity incubated for 5 days by inverted microscopic method
Genome polyprotein [15] = target: T1, Genome polyprotein; test: Inhibition of RNA-dependent RNA polymerase in Zika virus MR766 infected in African green monkey Vero cells assessed as antiviral activity by measuring reduction in virus-induced cytopathic effect after 5 days by MTS assay
Genome polyprotein [16] = target: T1, Genome polyprotein; test: Inhibition of RNA-dependent RNA polymerase in Zika virus MR766 infected in African green monkey Vero cells assessed as antiviral activity by Alexa Fluor 488/DAPI staining based assay
Genome polyprotein [17] = target: T1, Genome polyprotein; test: Inhibition of RNA-dependent RNA polymerase in Zika virus MR766 infected in African green monkey Vero cells assessed as antiviral activity by measuring reduction in virus-yield
Genome polyprotein [18] = target: T1, Genome polyprotein; test: Inhibition of RNA-dependent RNA polymerase in Zika virus MR766 infected in African green monkey Vero cells assessed as antiviral activity by methylene blue staining based by Plaque reduction assay
Genome polyprotein [19] = target: T1, Genome polyprotein; test: Inhibition of RNA-dependent RNA polymerase in Zika virus PRVABC-59 infected in African green monkey Vero cells assessed as antiviral activity by neutral dye based colorimetric method
Genome polyprotein [20] = target: T1, Genome polyprotein; test: Inhibition of RNA-dependent RNA polymerase in Zika virus Malaysian P 6-740 infected in human Huh-7 cells assessed as antiviral activity by neutral dye based colorimetric method
Genome polyprotein [21] = target: T1, Genome polyprotein; test: Inhibition of RNA-dependent RNA polymerase in Zika virus PRVABC-59 infected in human HuH7 cells assessed as antiviral activity by neutral dye based colorimetric method
Genome polyprotein [22] = target: T1, Genome polyprotein; test: Inhibition of RNA-dependent RNA polymerase in Zika virus Ugandan MR-766 infected in human RD cells assessed as antiviral activity by neutral dye based colorimetric method
Genome polyprotein [23] = target: T1, Genome polyprotein; test: Inhibition of RNA-dependent RNA polymerase in Zika virus PRVABC-59 infected in human RD cells assessed as antiviral activity by neutral dye based colorimetric method
Genome polyprotein [24] = target: T1, Genome polyprotein; test: Inhibition of RNA-dependent RNA polymerase in Zika virus Ugandan MR-766 infected in human Huh-7 cells assessed as antiviral activity by neutral dye based colorimetric method
Genome polyprotein [25] = target: T1, Genome polyprotein; test: Inhibition of RNA-dependent RNA polymerase in Zika virus Ugandan MR-766 infected in African green monkey Vero cells assessed as antiviral activity by neutral dye based colorimetric method
Genome polyprotein [26] = target: T1, Genome polyprotein; test: Inhibition of RNA-dependent RNA polymerase in Zika virus Malaysian P 6-740 infected in African green monkey Vero cells assessed as antiviral activity by neutral dye based colorimetric method
Nonstructural protein 3 [27] = target: T2, Nonstructural protein 3 (Zika virus, UniProt A0A024AXB9); test: Inhibition of NS2B-NS3 protease in Zika virus Puerto Rico/PRVABC5 infected in African green monkey Vero cells assessed as antiviral activity measured 48 hrs post infection by RT-PCR method
Nonstructural protein 3 [28] = target: T2, Nonstructural protein 3; test: Inhibition of NS2B-NS3 protease in Zika virus Puerto Rico/PRVABC5 assessed as antiviral activity measured 48 hrs post infection by plaque reduction assay
Nonstructural protein 3 [29] = target: T2, Nonstructural protein 3; test: Inhibition of NS2B-NS3 protease in Zika virus Puerto Rico/PRVABC5 infected in human Huh7 cells assessed as antiviral activity measured 48 hrs post infection by RT-PCR method

T1 sequence (A0A143MHK7 whole entry): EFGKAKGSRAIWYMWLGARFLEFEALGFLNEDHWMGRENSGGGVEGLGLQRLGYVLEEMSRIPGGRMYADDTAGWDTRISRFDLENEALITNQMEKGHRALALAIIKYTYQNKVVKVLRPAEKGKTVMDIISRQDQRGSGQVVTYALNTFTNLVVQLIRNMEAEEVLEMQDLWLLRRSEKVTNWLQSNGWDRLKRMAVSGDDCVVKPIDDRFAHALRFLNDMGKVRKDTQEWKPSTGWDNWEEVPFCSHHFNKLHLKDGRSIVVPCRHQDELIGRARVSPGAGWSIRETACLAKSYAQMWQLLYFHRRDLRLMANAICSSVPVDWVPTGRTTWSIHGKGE
T2 sequence (A0A024AXB9 whole entry): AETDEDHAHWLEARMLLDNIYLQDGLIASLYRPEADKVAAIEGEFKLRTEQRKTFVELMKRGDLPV

CC[C@H]1CN2CCc3cc(OC)c(OC)cc3[C@@H]2C[C@@H]1C[C@H]1NCCc2cc(OC)c(OC)cc21 [6',7',10,11-tetramethoxyemetan]
EC50 [1]: 0.053 µM
EC50 [2]: 0.0087 µM

NC(=O)c1ncn([C@@H]2O[C@H](CO)[C@@H](O)[C@H]2O)n1 [Tribavirin]
EC50 [3]: 20.8 µM

O=C(NC(=S)Nc1ccc(N2CCN(C(=O)c3cccs3)CC2)cc1)c1sc2ccccc2c1Cl
EC50 [4]: 0.094 µM

C#C[C@@]1(O)[C@H](O)[C@@H](CO)O[C@H]1n1ccc2c(N)ncnc21 [NITD008]
EC50 (Genome polyprotein [5]): 0.137 µM
EC50 (Genome polyprotein [6]): 0.137 µM
EC50 (Genome polyprotein [7]): 0.137 µM
EC50 (Genome polyprotein [8]): 0.137 µM

CCCCCOCc1c(Nc2ccc(S(N)(=O)=O)cc2)nc(N2CCOCC2)nc1C(=O)NCCOc1ccccc1
EC50 [9]: 2.04 µM

CC(C)OC(=O)[C@H](C)N[P@](=O)(OC[C@H]1O[C@@H](n2ccc(=O)[nH]c2=O)[C@](C)(F)[C@@H]1O)Oc1ccccc1 [CHEBI:85083]
EC50 [10]: 30.9 µM
EC50 [11]: 0.12 µM

C#C[C@@]1(O)[C@H](O)[C@@H](COP(=O)(N[C@@H](C)C(=O)OC(C)C)Oc2ccccc2)O[C@H]1n1ccc(=O)[nH]c1=O (stereo partly specified)
EC50 [12]: 0.3 µM
EC50 [13]: 0.8 µM

O=C1c2cccc3cccc(c23)C(=O)N1CCc1ccc(S(=O)(=O)N2CCN(c3ccccc3)CC2)cc1
EC50 [14]: 4.8 µM

Nc1ncnc2c1ccn2[C@@H]1O[C@H](CO)[C@@H](O)[C@H]1O ['2-(4-AMINO-PYRROLO[2,3-D]PYRIMIDIN-7-YL)-5-HYDROXYMETHYL-TETRAHYDRO-FURAN-3,4-DIOL]
EC50 (Genome polyprotein [15]): 1.3 µM
EC50 (Genome polyprotein [16]): 1.3 µM
EC50 (Genome polyprotein [17]): 1.3 µM
EC50 (Genome polyprotein [18]): 1.3 µM

CC(C)OC(=O)[C@H](C)NP(=O)(OC[C@H]1O[C@@H](n2ccc(=O)[nH]c2=O)[C@H](O)[C@@H]1O)Oc1ccccc1 (stereo partly specified)
EC50 [12]: 1 µM
EC50 [13]: 2 µM

Nc1ncnc2c([C@@H]3N[C@H](CO)[C@@H](O)[C@H]3O)c[nH]c12 [BCX-4430]
EC50 (Genome polyprotein [19]): 14.3 µM
EC50 (Genome polyprotein [20]): 14.3 µM
EC50 (Genome polyprotein [21]): 14.3 µM
EC50 (Genome polyprotein [22]): 14.3 µM
EC50 (Genome polyprotein [23]): 14.3 µM
EC50 (Genome polyprotein [24]): 14.3 µM
EC50 (Genome polyprotein [25]): 14.3 µM
EC50 (Genome polyprotein [26]): 14.3 µM

CO[C@@H]1[C@@H](OC(N)=O)[C@@H](O)[C@H](Oc2ccc3c(O)c(NC(=O)c4ccc(O)c(CC=C(C)C)c4)c(=O)oc3c2C)OC1(C)C [Carbamic acid 5-hydroxy-6-{4-hydroxy-3-[4-hydroxy-3-(3-methyl-but-2-enyl)-benzoylamino]-8-methyl-2-oxo-2H-chromen-7-yloxy}-3-methoxy-2,2-dimethyl-tetrahydro-pyran-4-yl ester(Novobiocin)]
EC50 (Nonstructural protein 3 [27]): 24.4 µM
EC50 (Nonstructural protein 3 [28]): 24.4 µM
EC50 (Nonstructural protein 3 [29]): 24.4 µM
